{"source": "patent US5786385A", "about": "“Polyacetylenes” (priority 1993, dated 1998)", "key": {"central nervous system": {"tested_on": "central nervous system", "test": "Central nervous system stimulant / convulsant activity compared with picrotoxin; antagonism by anticonvulsants", "type": "in vivo", "conditions": "for antagonism of cunaniol convulsant action: prior exposure to anticonvulsant", "excerpt": "(§1) Cunaniol is about ten times as active and ten times as rapid as the classic central nervous system stimulant picrotoxin. Convulsant action can be antagonised by prior exposure to anticonvulsants such as phenobarbitone or troxidone."}, "frogs": {"tested_on": "frogs", "test": "Administration to frogs by injection or by topical application: convulsions and death", "type": "in vivo, frog", "excerpt": "as §1"}, "[1]": {"tested_on": "frog spinal cord preparation", "test": "Frog spinal cord preparation", "excerpt": "as §1"}, "mice": {"tested_on": "mice", "test": "Convulsant action in mice, intraperitoneal or oral", "type": "in vivo, mouse", "conditions": "for convulsant type in mice: intraperitoneally or orally; for similarity of convulsant actions to cunaniol: mice"}, "[2]": {"test": "Convulsant action and lethality in rats, intraperitoneal injection", "type": "in vivo, rat", "conditions": "rat, in vivo, ip, read-out: non-convulsant dose", "experimental": "(§2) Rats are also sensitive to the convulsant actions of cunaniol, a convulsant dose being 5 mg/kg. A dosage of 2.24 mg/kg is a non-convulsant dose while 10 mg/kg causes death (intraperitoneal injection)."}, "Rats": {"tested_on": "Rats", "test": "Convulsant action and lethality in rats, intraperitoneal injection", "type": "in vivo, rat", "experimental": "as §2"}, "[3]": {"tested_on": "pentobarbitone sodium induced sleep", "test": "Pentobarbitone sodium induced sleep in rats (sleeping time), analeptic action", "type": "in vivo, rat", "conditions": "for ED50: after intraperitoneal 40 mg/kg pentobarbitone sodium, read-out: dose reducing \"sleeping time\" by 50%", "experimental": "The effects of cunaniol on pentobarbitone sodium induced sleep in rats were compared with those of the analeptic bemegride. 5 mg/kg of cunaniol administered by intraperitoneal injection antagonises pentobarbitone while 7.4 mg/kg reduces \"sleeping time\" by 50% after intraperitoneal administration of a concentration of 40 mg/kg pentobarbitone sodium."}, "GABAergic system": {"tested_on": "GABAergic system", "test": "GABA (gamma-amino-butyric acid) antagonism"}, "cardiovascular system": {"tested_on": "cardiovascular system", "test": "Action on the cardiovascular system", "conditions": "in vivo"}, "isolated rabbit heart": {"tested_on": "isolated rabbit heart", "test": "Isolated rabbit heart perfusion"}, "rat heart": {"tested_on": "rat heart", "test": "Rat heart contractability and heart block"}, "[4]": {"tested_on": "intact anaesthetised rats", "test": "Pressor response in intact anaesthetised rats", "type": "in vivo, rat", "conditions": "intravenous injection", "experimental": "(§3) In intact anaesthetised rats, a sustained pressor response is produced by cunaniol administered by intravenous injection in doses of 0.5 mg or greater. In pithed rats the response to cunaniol was abolished, indicating a central action of the polyacetylene."}, "pithed rats": {"tested_on": "pithed rats", "test": "Pressor response in pithed rats", "type": "in vivo, rat", "conditions": "indicating a central action", "experimental": "as §3"}, "[5]": {"tested_on": "frog and rat isolated striated muscle preparations", "test": "Frog and rat isolated striated muscle preparations, nerve stimulation", "excerpt": "Experiments have been carried out on frog and rat isolated striated muscle preparations."}, "[6]": {"tested_on": "isolated rat phrenic nerve-diaphragm preparation", "test": "Isolated rat phrenic nerve-diaphragm preparation", "excerpt": "This is not reversed by neostigmine, i.e. is not curare-like."}, "guppies": {"tested_on": "guppies", "test": "Toxicity test on guppies", "type": "in vivo, guppy", "excerpt": "Cunaniol or its derivatives may also be used as an effective toxin. When tested on guppies at approximately 10^-6 M the poison gives rise to restless movement after two minutes, wild swimming, convulsion and coma with the body bent laterally after ten minutes."}, "viviparous fish": {"tested_on": "viviparous fish", "test": "Release of fry from viviparous fish", "type": "in vivo", "conditions": "due to effects on neuromuscular function"}, "[7]": {"test": "Solubility / lipophilicity", "type": "physicochemical"}, "[8]": {"conditions": "for stability to air and light: exposure to light and air / oxygen"}, "[9]": {"test": "Craig Distribution studies (Kp value)", "type": "physicochemical", "conditions": "obtained previously from Craig Distribution studies", "experimental": "Crude syrup (190 g.) from the cold petrol extraction was dissolved in upper phase solvent (150 mls.). A steady state distribution program was used, based on a Kp value for cunaniol acetate of 0.54 obtained previously from Craig Distribution studies. The mixture was then loaded into the SSDM dosage pump."}, "[10]": {"test": "Potency of cis-cunaniol relative to the trans form", "conditions": "cis form versus trans form; only about 1/60th"}}, "note": "Like-named read-outs stand apart in the source and are kept apart here."}
{"molecule": "CC#CC#CC#CC=CC1OCCCC1O", "note": "(stereo not shown) [cunaniol]", "values": [{"measurement": "rapidity relative to picrotoxin", "setting": "central nervous system; ten times as rapid as picrotoxin", "value": "about ten"}, {"measurement": "effect in frogs", "setting": "frogs; by injection or by topical application", "value": "clonic convulsions and death"}, {"measurement": "LD50", "setting": "frogs; frogs, intraperitoneal injection", "value": 12.8, "unit": "mg/kg"}, {"measurement": "effects on frog spinal cord preparation", "setting": "[1]", "value": "resemble those of nicotine"}, {"measurement": "potency among the clonic convulsants", "setting": "mice; both routes of administration, compared with leptazol, picrotoxin", "value": "most potent of the clonic convulsants"}, {"measurement": "speed of onset of effects", "setting": "mice; compared with the other compounds", "value": "usually occurred more rapidly than with the other compounds"}, {"measurement": "convulsant type in mice", "setting": "mice", "value": "clonic convulsant"}, {"measurement": "NOAEL", "setting": "[2]", "value": 2.24, "unit": "mg/kg"}, {"measurement": "convulsant dose", "setting": "Rats", "value": 5, "unit": "mg/kg"}, {"measurement": "dose causing death", "setting": "Rats", "value": 10, "unit": "mg/kg"}, {"measurement": "minimal effective dose", "setting": "[3]; Rattus norvegicus, ip, rats, intraperitoneal injection, read-out: dose antagonising pentobarbitone", "value": 5, "unit": "mg/kg"}, {"measurement": "ED50", "setting": "[3]; Rattus norvegicus, ip, rats", "value": 7.4, "unit": "mg/kg"}, {"measurement": "selectivity as analeptic", "setting": "[3]; compared with bemegride and leptazol", "value": "more selective anti-phenobarbitone action"}, {"measurement": "analeptic potency compared with bemegride", "setting": "[3]; rats, 50% reduction of \"sleeping time\"", "value": "more potent than bemegride"}, {"measurement": "GABA antagonist activity", "setting": "GABAergic system", "value": "GABA (gamma-amino-butyric acid) antagonist"}, {"measurement": "effect on the cardiovascular system", "setting": "cardiovascular system", "value": "transient depressant effect on the heart and a sustained pressor response"}, {"measurement": "effect on isolated rabbit heart", "setting": "isolated rabbit heart; perfusion, 100 μg/ml, preliminary experiments", "value": "negative inotropic effect culminating in complete but reversible cardiac arrest in diastole"}, {"measurement": "effect on rat heart, larger doses", "setting": "rat heart; larger doses", "value": "complete heart block"}, {"measurement": "reversibility of heart block", "setting": "rat heart; on washing out, no apparent impairment of function", "value": "rapidly reversed on washing out"}, {"measurement": "effect on rat heart, small doses", "setting": "rat heart; small doses", "value": "reduce contractability of the rat heart"}, {"measurement": "dose producing a sustained pressor response", "setting": "[4]", "value": "≥ 0.5", "unit": "mg"}, {"measurement": "pressor response in pithed rats", "setting": "pithed rats", "value": "abolished"}, {"measurement": "response to nerve stimulation", "setting": "[5]", "value": "increased response to nerve stimulation"}, {"measurement": "neuromuscular transmission at higher concentrations", "setting": "[5]; higher concentrations", "value": "failure in neuromuscular transmission"}, {"measurement": "minimal effective concentration", "setting": "[6]; Rattus norvegicus, direct action on the muscle, dose dependent, concentrations as low as, read-out: lowest concentration giving marked potentiation", "value": 12.5, "unit": "µg/mL"}, {"measurement": "concentration giving complete neuromuscular block", "setting": "[6]; higher concentrations", "value": 100, "unit": "µg/mL"}, {"measurement": "reversal of block by washing", "setting": "[6]; washing", "value": "readily reversed by washing"}, {"measurement": "time for removal of potentiation by washing", "setting": "[6]; washing, more slowly removed than block", "value": 60, "unit": "min"}, {"measurement": "edibility of treated fish", "setting": "guppies; almost immediately after treatment", "value": "edible almost immediately"}, {"measurement": "subsequent symptoms after recovery", "setting": "guppies; guppies removed into fresh water", "value": "no subsequent symptoms"}, {"measurement": "time to complete recovery", "setting": "guppies; guppies removed into fresh water after ten minutes at approximately 10^-6 M", "value": "approximately twenty"}, {"measurement": "time to restless movement", "setting": "guppies; guppies, approximately 10^-6 M", "value": "two"}, {"measurement": "time to wild swimming, convulsion and coma with the body bent laterally", "setting": "guppies; guppies, approximately 10^-6 M", "value": "ten"}, {"measurement": "release of fry from viviparous fish", "setting": "viviparous fish", "value": "highly effective"}, {"measurement": "lipophilicity", "setting": "[7]; due to the polyacetylene chain", "value": "lipophilic"}, {"measurement": "stability to air and light", "setting": "[8]", "value": "readily decomposed to a brown material"}, {"measurement": "stability to air and light", "setting": "[8]; listed as trans-cunaniol", "value": "unstable to oxygen and light"}, {"measurement": "storage stability", "setting": "[8]; solid under n-hexane, in the dark, in a refrigerator", "value": "could be kept for years"}]}
{"molecule": "CCC1(c2ccccc2)C(=O)NC(=O)NC1=O", "note": "[phenobarbitone, reference compound]", "values": [{"measurement": "antagonism of cunaniol convulsant action", "setting": "central nervous system", "value": "antagonised"}, {"measurement": "antagonism of responses of guppies to cunaniol", "setting": "guppies; in vivo", "value": "readily antagonises all responses"}]}
{"molecule": "O=C1C[C@@H]2OCC=C3CN4CC[C@]56c7ccccc7N1[C@H]5[C@H]2[C@H]3C[C@H]46", "note": "[strychnine]", "values": [{"measurement": "convulsant type in mice", "setting": "mice", "value": "tonic convulsions"}, {"measurement": "similarity of convulsant actions to cunaniol", "setting": "mice", "value": "differed"}]}
{"molecule": "CCC1(C)CC(=O)NC(=O)C1", "note": "[bemegride, reference compound]", "values": [{"measurement": "ED50", "setting": "[3]; Rattus norvegicus, ip, rats", "value": 45.7, "unit": "mg/kg"}]}
{"molecule": "CC#CC#CC#CC=CC1OCCCC1OC(C)=O", "note": "(stereo not shown) [cunaniol acetate]", "values": [{"measurement": "Kp value", "setting": "[9]", "value": 0.54}, {"measurement": "hydrolysis", "setting": "[8]; with sodium bicarbonate", "value": "easily hydrolysed"}]}
{"molecule": "CC#CC#CC#C/C=C\\C1OCCCC1O", "note": "(stereo not drawn) [cis-cunaniol]", "values": [{"measurement": "potency relative to trans form", "setting": "[10]", "value": "about 1/60"}]}
{"molecule": "C=C(C)[C@H]1Cc2c(ccc3c2O[C@@H]2COc4cc(OC)c(OC)cc4[C@@H]2C3=O)O1", "note": "[rotenone]", "values": [{"measurement": "toxicity to mice", "setting": "mice; metabolic toxin, comparison", "value": "highly toxic to mice"}, {"measurement": "similarity of convulsant actions to cunaniol", "setting": "mice", "value": "qualitatively different from the convulsants"}, {"measurement": "reversibility in isolated rabbit heart", "setting": "isolated rabbit heart; similar experiment with rotenone", "value": "did not exhibit the reversibility"}]}
{"molecule": "CC#CC#CC#C/C=C/C1OCCCC1O", "note": "(stereo not shown)", "values": [{"measurement": "solubility in water", "setting": "[7]; water", "value": "low solubility in water"}]}
{"molecule": "CN(C)C(=O)Oc1cccc([N+](C)(C)C)c1", "note": "[neostigmine, reference compound]", "values": [{"measurement": "reversal of neuromuscular block by neostigmine", "setting": "[6]; block by cunaniol, i.e. not curare-like", "value": "not reversed"}]}
{"molecule": "CC#CC#CC#C/C=C/C1OCCCC1OC1C=C[C@H](OC(C)=O)[C@@H](COC(C)=O)O1", "note": "(stereo partly shown) [glycoside]", "values": [{"measurement": "liberation of cunaniol on hydrolysis", "setting": "[8]; hydrolysis of the glycoside link", "value": "readily liberated on hydrolysis"}]}
{"molecule": "C1CCc2nnnn2CC1", "note": "[leptazol]", "values": [{"measurement": "similarity of convulsant actions to cunaniol", "setting": "mice", "value": "mimicked closely"}]}
{"molecule": "picrotoxin", "values": [{"measurement": "similarity of convulsant actions to cunaniol", "setting": "mice", "value": "less closely"}]}
{"molecule": "CN1C(=O)OC(C)(C)C1=O", "note": "[troxidone, reference compound]", "values": [{"measurement": "antagonism of cunaniol convulsant action", "setting": "central nervous system", "value": "antagonised"}]}
